Results published in ChEMBL document CHEMBL4177599, “The antitubercular activity of various nitro(triazole/imidazole)-based compounds” (Bioorg Med Chem, 2017).
≈ marks a conversion by molar mass, not a printed value.

How the values were obtained:
[1] = Solubility of compound in Middlebrook 7H9 broth media at pH 6.4 at 200 uM after 90 mins by UV-VIS spectrophotometric method; type: physicochemical; conditions: buffer, pH 6.4, 1.5 h
[2] = system: Mycobacterium tuberculosis; assay: Antitubercular activity against Mycobacterium tuberculosis H37Rv ATCC 27294 after 5 days under aerobic condition; type: functional, organism-based; conditions: for IC50 / IC90 / MIC: H37Rv ATCC 27294, 120 h; for Activity: TDE = time-dependent effect
[3] = system: L6; assay: Cytotoxicity against rat L6 cells after 2 days by CellTiter-Glo luminescent cell viability assay; type: ADME, cell-based; conditions: L6, 48 h
[4] = system: THP-1; assay: Cytotoxicity against human THP1 cells after 3 days by luminescence assay; type: cell-based; conditions: THP-1, 72 h
[5] = system: Mycobacterium tuberculosis; assay: Antitubercular activity against luxABCDE expressing Mycobacterium tuberculosis H37Rv infected in human THP1 cells measured after 3 days by luminescence assay; type: functional, organism-based; conditions: THP-1, 72 h
[6] = system: Mycobacterium tuberculosis; assay: Bactericidal activity against Mycobacterium tuberculosis H37Rv ATCC 27294 assessed as concentration required for 2 log kill after 21 days under aerobic condition by colony forming assay; type: functional; conditions: for MBC: H37Rv ATCC 27294, 504 h; for Activity: TDE = time-dependent effect
[7] = system: Mycobacterium tuberculosis; assay: Potency index, ratio of compound MIC to metronidazole MIC for antitubercular activity against Mycobacterium tuberculosis H37Rv ATCC 27294 under low oxygen condition; type: functional
[8] = system: Mycobacterium tuberculosis; assay: Antitubercular activity against Mycobacterium tuberculosis H37Rv ATCC 27294 after 10 days under low oxygen condition followed by incubation under aerobic condition for 28 hrs by LORA; type: functional, organism-based
[9] = system: Vero; assay: Cytotoxicity against African green monkey Vero cells after 2 days by CellTiter-Glo luminescent cell viability assay; type: ADME, cell-based; conditions: Chlorocebus sabaeus, 48 h
[10] = in vitro; conditions: human, Caco-2
Description: Apparent permeability of the compound across apical side to basolateral side in human Caco2 cells monolayer at 10 uM after 2 hrs by LC-MS/MS analysis

[11] = Half life in human liver S9 microsomes at 1 uM in presence of NADPH by LC-MS/MS analysis
[12] = system: HepG2; assay: Cytotoxicity against human HepG2 cells at 100 uM after 3 days by CellTiter-Glo luminescent cell viability assay; type: cell-based; conditions: HepG2, 72 h
[13] = in vitro; conditions: human, THP1 cells
Description: Selectivity index, ratio of IC50 for human THP1 cells to IC50 for Mycobacterium tuberculosis H37Rv under aerobic condition

[14] = Half life in human liver S9 microsomes at 1 uM in absence of NADPH by LC-MS/MS analysis
[15] = Protein binding in human plasma at 5 uM after 4 hrs by LC-MS/MS analysis
[16] = in vitro; conditions: human, Caco-2; remark: listed apart in the source
Description: Apparent permeability of the compound across basolateral side to apical side in human Caco2 cells monolayer at 10 uM after 2 hrs by LC-MS/MS analysis

[17] = Intrinsic clearance in human liver S9 microsomes at 1 uM in presence of NADPH by LC-MS/MS analysis; type: ADME, S9 microsome; conditions: read-out: CLH
[18] = Intrinsic clearance in human liver S9 microsomes at 1 uM in absence of NADPH by LC-MS/MS analysis; type: ADME, S9 microsome; conditions: read-out: CLH
[19] = system: Mycobacterium tuberculosis; assay: Antitubercular activity against luxABCDE expressing Mycobacterium tuberculosis H37Rv infected in mouse J774 macrophages assessed as log reduction in bacterial colonies at 200 uM measured after 4 days under aerobic condition by luminescence assay; type: functional
[20] = system: Mycobacterium tuberculosis; assay: Antitubercular activity against luxABCDE expressing Mycobacterium tuberculosis H37Rv infected in mouse J774 macrophages assessed as log reduction in bacterial colonies at 20 uM measured after 4 days under aerobic condition by luminescence assay; type: functional
[21] = in vitro; conditions: human, Caco-2; remark: listed apart in the source
Description: Efflux ratio of apparent permeability from basolateral to apical over apical to basolateral side in human Caco2 cells monolayer at 10 uM after 2 hrs by LC-MS/MS analysis

SMILES | IC50 [2] [µM] | IC90 [2] [µM] | MIC [2] [µM] | IC50 [5] [µM] | IC90 [5] [µM] | MBC [6] [µM] | IC50 [8] [µM] | IC90 [8] [µM] | MIC [8] [µM] | other results
Cc1ccoc1C(=O)NCCCn1cnc([N+](=O)[O-])n1 | 41 | 54 | 54.5 (≈ 15.2 µg/mL) |  |  |  |  |  |  | solubility [1]: Soluble
O=C(CCn1cnc([N+](=O)[O-])n1)Nc1ccc(Oc2ccc(Cl)cc2)cc1 | 15 to 22 | 22 to 24 | 24 to 26 (≈ 9.31 to 10.1 µg/mL) | 3.4 | 10 | 20 (≈ 7.76 µg/mL) | 25 | 27 | 30 (≈ 11.6 µg/mL) | IC50 [3]: 17 µM; IC50 [4]: 14 µM; Activity [2]: Tde; Activity [6]: Tde; Ratio [7]: 6 - 9
O=C(Cn1cnc([N+](=O)[O-])n1)N1CCN(C(c2ccccc2)c2ccc(Cl)cc2)CC1 (stereo not drawn) | 38 | 48 | 50 (≈ 22 µg/mL) | 8 | 11 | 100 (≈ 44.1 µg/mL) | 51 | 57 | 65 (≈ 28.7 µg/mL) | IC50 [3]: 32 µM; IC50 [9]: 21 µM
O=C(Cn1cnc([N+](=O)[O-])n1)Nc1cc(-c2ccc(Cl)cc2)no1 | 96 | 140 | 200 (≈ 69.7 µg/mL) |  |  |  |  |  |  | 
O=C(Cn1cnc([N+](=O)[O-])n1)N1CCN(Cc2ccc(Cl)c(Cl)c2)CC1 | 5.9 | 7.7 | 6.6 (≈ 2.63 µg/mL) | 4 | 6.7 | 5.6 (≈ 2.24 µg/mL) | 17 | 47 | 140 (≈ 55.9 µg/mL) | Papp A→B at 2 h, 10 µM [10]: 16.3 ×10⁻⁶ cm/s; half-life at 1 µM [11]: 1.2 h; IC50 [4]: > 50 µM; IC50 [12]: 77 µM; selectivity ratio [13]: > 10; half-life at 1 µM [14]: 2.9 h; fraction unbound at 4 h, 5 µM [15]: 0.076; Papp B→A at 2 h, 10 µM [16]: 14.8 ×10⁻⁶ cm/s
O=C(CCn1cnc([N+](=O)[O-])n1)Nc1cc(-c2ccc(F)cc2)on1 | 66 | > 100 | > 200 |  |  |  |  |  |  | 
O=C(Cn1cnc([N+](=O)[O-])n1)Nc1nc(-c2ccc(Cl)cc2)cs1 | 34.2 | 34.9 | 34.9 (≈ 12.7 µg/mL) |  |  |  |  |  |  | solubility [1]: Insoluble
COc1ccc2c(c1)[C@]13CCCC[C@@H]1[C@H](C2)N(C)CC3 [DEXTROMETHORPHAN] |  |  |  |  |  |  |  |  |  | microsomal CLint at 1 µM [17]: 24.2 µL/min/mg; half-life at 1 µM [11]: 1.54 to 1.59 h; microsomal CLint at 1 µM [18]: < 12.8 µL/min/mg
O=C(NCCCn1cnc([N+](=O)[O-])n1)c1cc2ccccc2s1 | 107 | > 200 | > 200 |  |  |  |  |  |  | solubility [1]: Insoluble
O=C(Cn1cnc([N+](=O)[O-])n1)Nc1cccc(-c2ccccc2)c1 | 27 | 39 | 31 (≈ 10 µg/mL) | 11 | 12 | 20 (≈ 6.47 µg/mL) | 30 | 46 | 73 (≈ 23.6 µg/mL) | IC50 [4]: > 50 µM; IC50 [12]: 46 µM; half-life at 1 µM [14]: 1.32 h; fraction unbound at 4 h, 5 µM [15]: 0.028
Cc1nc([N+](=O)[O-])cn1CCCNC(=O)c1cc2ccccc2s1 | > 200 | > 200 | > 200 |  |  |  |  |  |  | solubility [1]: Soluble
Cc1ncc([N+](=O)[O-])n1CCO [METRONIDAZOLE] | > 200 | > 200 | > 200 |  |  |  | 14 to 36 | 33 to 82 | 88 to 200 (≈ 15.1 to 34.2 µg/mL) | 
O=C(CCCN1CCC(O)(c2ccc(Cl)cc2)CC1)c1ccc(F)cc1 [HALOPERIDOL] |  |  |  |  |  |  |  |  |  | solubility [1]: Insoluble
O=C(CCn1cnc([N+](=O)[O-])n1)Nc1ccc(Oc2ccccc2)cc1 | 28 to 32 | 39 to 45 | 48 (≈ 17 µg/mL) | 5 | 17 | 20 (≈ 7.07 µg/mL) | 32 | 49 | 81 (≈ 28.6 µg/mL) | IC50 [3]: 32 µM; IC50 [4]: 33 µM; Activity [2]: Tde; Activity [6]: Tde
CN[C@@H]1C[C@H]2O[C@@](C)([C@@H]1OC)n1c3ccccc3c3c4c(c5c6ccccc6n2c5c31)C(=O)NC4 [STAUROSPORINE] |  |  |  |  |  |  |  |  |  | IC50 [12]: 0.018 µM
Cc1nc([N+](=O)[O-])cn1CCCNC(=O)c1sc2ccccc2c1Cl | 175 | > 200 | > 200 |  |  |  |  |  |  | solubility [1]: Soluble
O=C(Cn1ccnc1[N+](=O)[O-])Nc1ccc(Oc2ccccc2)cc1 | 60 | 90 | 98 (≈ 33.2 µg/mL) |  |  | 100 (≈ 33.8 µg/mL) | 14 | 71 | > 200 | IC50 [3]: 63 µM; log(activity) [19]: 2.7; IC50 [9]: 98 µM
O=C(Cn1ccnc1[N+](=O)[O-])Nc1ccc(Oc2ccc(F)cc2)cc1 | 44 | 89 | 80 (≈ 28.5 µg/mL) |  |  | 100 (≈ 35.6 µg/mL) | 17 | 31 | 61 (≈ 21.7 µg/mL) | log(activity) [20]: 2.2; IC50 [9]: 56 µM
O=C(Cn1ccnc1[N+](=O)[O-])Nc1ccc(Oc2ccc(Cl)cc2)cc1 | 81 | > 200 | > 200 |  |  | 100 (≈ 37.3 µg/mL) | 17 | 24 | 35 (≈ 13 µg/mL) | Ratio [7]: 6 - 9; log(activity) [20]: 2.6; IC50 [9]: 30 µM
O=C(Cn1cnc([N+](=O)[O-])n1)Nc1ccc(Oc2ccccc2)cc1 | 65 | 100 | 105 (≈ 35.6 µg/mL) |  |  | 200 (≈ 67.9 µg/mL) | 8.9 | 92 | > 200 | log(activity) [19]: 2.7; IC50 [9]: 39 µM
CC(=O)N1CCN(c2ccc(OCC3COC(Cn4ccnc4)(c4ccc(Cl)cc4Cl)O3)cc2)CC1 (stereo not drawn) [KETOCONAZOLE] |  |  |  |  |  |  |  |  |  | solubility [1]: Insoluble
N#Cc1ccc(-c2ccc(NC(=O)Cn3cnc([N+](=O)[O-])n3)cc2)cc1 | > 200 | > 200 | > 200 |  |  |  |  |  | 52.1 (≈ 18.1 µg/mL) | 
CO[C@H]1/C=C/O[C@@]2(C)Oc3c(C)c(O)c4c(O)c(c(/C=N/N5CCN(C)CC5)c(O)c4c3C2=O)NC(=O)/C(C)=C\C=C\[C@H](C)[C@H](O)[C@@H](C)[C@@H](O)[C@@H](C)[C@H](OC(C)=O)[C@@H]1C [RIFAMPIN] | 0.0046 to 0.0061 | 0.0049 to 0.014 | 0.015 to 0.033 (≈ 0.0123 to 0.0272 µg/mL) |  |  |  | 0.00072 to 0.015 | 0.0037 to 0.049 | 0.022 to 0.18 (≈ 0.0181 to 0.148 µg/mL) | 
COCCc1ccc(OCC(O)CNC(C)C)cc1.COCCc1ccc(OCC(O)CNC(C)C)cc1.O=C(O)/C=C/C(=O)O (racemic) [METOPROLOL FUMARATE] |  |  |  |  |  |  |  |  |  | solubility [1]: Soluble
O=C(Cn1cnc([N+](=O)[O-])n1)Nc1ccc(Oc2ccc(Cl)cc2)cc1 | 51 | 100 | 94 (≈ 35.1 µg/mL) |  |  | 100 (≈ 37.4 µg/mL) | 13 | 94 | > 200 | log(activity) [19]: 2.6; IC50 [9]: 19 µM
O=C(CCn1cnc([N+](=O)[O-])n1)Nc1ccc(Oc2ccc(F)cc2)cc1 | 22 to 25 | 28 to 34 | 31 to 32 (≈ 11.5 to 11.9 µg/mL) | 3.8 | 16 | 20 (≈ 7.43 µg/mL) | 25 | 28 | 31 (≈ 11.5 µg/mL) | IC50 [3]: 23 µM; IC50 [4]: 21 µM; Activity [2]: Tde; Activity [6]: Tde; Ratio [7]: 6 - 9
O=C(Cn1cnc([N+](=O)[O-])n1)N1CCN(Cc2ccc(C(F)(F)F)cc2)CC1 | 25 | 28 | 27 (≈ 10.8 µg/mL) | 13 | 14 | 20 (≈ 7.97 µg/mL) | 62 | 100 | 170 (≈ 67.7 µg/mL) | half-life at 1 µM [11]: > 3 h; IC50 [4]: > 50 µM; IC50 [12]: > 100 µM; half-life at 1 µM [14]: > 3 h; fraction unbound at 4 h, 5 µM [15]: 0.179
O=C(Cn1cnc([N+](=O)[O-])n1)Nc1ccc(N2CCCCC2)cc1 | 29 | 46 | 48 (≈ 15.9 µg/mL) | 11 | 25 | 20 (≈ 6.61 µg/mL) | 99 | 110 | 120 (≈ 39.6 µg/mL) | Papp A→B at 2 h, 10 µM [10]: 38.4 ×10⁻⁶ cm/s; half-life at 1 µM [11]: 2.68 h; efflux ratio at 2 h, 10 µM [21]: 0.7; IC50 [4]: > 50 µM; IC50 [12]: > 100 µM; half-life at 1 µM [14]: > 3 h; fraction unbound at 4 h, 5 µM [15]: 0.233; Papp B→A at 2 h, 10 µM [16]: 27 ×10⁻⁶ cm/s
CC(O)(Cn1cnc([N+](=O)[O-])n1)c1ccc(-c2ccc(C#N)cc2)cc1 (stereo not drawn) | 55 | 125 | > 200 |  |  | 100 (≈ 34.9 µg/mL) | 73 | 176 | > 200 | IC50 [3]: 86 µM; IC50 [9]: 66 µM
O=C(Cn1cnc([N+](=O)[O-])n1)Nc1ccc(Cc2ccccc2)cc1 | 30 | 38 | 45 (≈ 15.2 µg/mL) | 6.2 | 12 | 20 (≈ 6.75 µg/mL) | 39 | 59 | 94 (≈ 31.7 µg/mL) | IC50 [4]: 47 µM
